Read-outs that look alike come from different tables or passages of the source.
How the values were obtained:
[1] = test system: HEK293 cells (ATCC CRL-1573); test: Cellular growth inhibition assay, HEK293 cells (Example 16); type: cell-based; details: Homo sapiens, 72 hours, CellTiter-Glo 2.0
HeLa cells (ATCC CCL-2) = test: Cellular growth inhibition assay, HeLa cells (Example 16); type: cell-based; details: Homo sapiens, 72 hours, CellTiter-Glo 2.0
GSPT1 = test: Payload release assay (DC50 readout), GSPT1 degradation in the presence of recombinant target protein; type: cell-based; details: I-series compounds (GSPT1 readout inferred)
KRAS G12C = KRAS G12C (Homo sapiens, UniProt P01116, G12C); test: KRAS G12C nucleotide exchange assay (SOS1-mediated, HTRF); type: biochemical; parameters: GST-tagged KRAS G12C (amino acids 2-169); details: 1 hr pre-incubation
Sequence of KRAS G12C (P01116 2-169 isoform P01116-2 G12C): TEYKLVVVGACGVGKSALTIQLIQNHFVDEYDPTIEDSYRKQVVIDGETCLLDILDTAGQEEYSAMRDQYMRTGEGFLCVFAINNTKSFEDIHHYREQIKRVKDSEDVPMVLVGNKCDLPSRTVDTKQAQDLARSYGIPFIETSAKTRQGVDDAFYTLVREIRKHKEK
Method in brief: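 GST-tagged KRAS G12C (aa 2-169, 30 nM) pre-incubated 1 h at RT with compound (10-point, 3-fold dilution from 10 μM), then SOS1 (aa 564-1049, 20 nM) and GTP-DY-647P1 (0.15 μM) added. Exchange read by HTRF with anti-GST Tb antibody. IC50 from sigmoidal variable-slope fit.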

[2] = 0 μM recombinant KRAS G12C, read-out: DC50 at 0 μM KRAS G12C
[3] = 5 μM recombinant KRAS G12C, read-out: DC50 at 5 μM KRAS G12C

C=C(COc1cc(NC(=O)NCc2ccc3c(c2)CN(C2CCC(=O)NC2=O)C3=O)cc(F)c1F)C(=O)N1CCN(c2nc(OC[C@@H]3CCCN3C)nc3c2CCN(c2cccc4cccc(Cl)c24)C3)C[C@@H]1CC#N (some centres unmarked) [Compound I-75]
GI50 [1]: > 10000 nM
GI50 (HeLa cells (ATCC CCL-2)): > 10 µM
DC50 (GSPT1; [2]): > 10000 nM
DC50 (GSPT1; [3]): > 10000 nM
IC50 (KRAS G12C): < 100 nM

C=C(COc1ccc(Cl)cc1NC(=O)NCc1ccc2c(c1)CN(C1CCC(=O)NC1=O)C2=O)C(=O)N1CC2(CC(n3nc(-c4ccc5c(cnn5C)c4)c(-c4c(Cl)c(C)cc5[nH]ncc45)c3C)C2)C1 (centres unmarked) [Compound I-76]
GI50 [1]: < 500 nM
GI50 (HeLa cells (ATCC CCL-2)): 0.5 to 1.5 µM
DC50 (GSPT1; [2]): < 250 nM
DC50 (GSPT1; [3]): < 250 nM
IC50 (KRAS G12C): 100 to 5000 nM

C=C(COc1cc(NC(=O)NCc2ccc3c(c2)CN(C2CCC(=O)NC2=O)C3=O)cc(C(F)(F)F)c1)C(=O)N1CC2(CC(n3nc(-c4ccc5c(cnn5C)c4)c(-c4c(Cl)c(C)cc5[nH]ncc45)c3C)C2)C1 (centres unmarked) [Compound I-77]
GI50 [1]: 500 to 1500 nM
GI50 (HeLa cells (ATCC CCL-2)): > 10 µM
DC50 (GSPT1; [2]): < 250 nM
DC50 (GSPT1; [3]): < 250 nM
IC50 (KRAS G12C): 100 to 5000 nM

C=C(COc1cc(Cl)cc(NC(=O)NCc2ccc3c(c2)CN(C2CCC(=O)NC2=O)C3=O)c1F)C(=O)N1CCN(c2nc(OC[C@@H]3CCCN3C)nc3c2CCN(c2cccc4cccc(Cl)c24)C3)C[C@@H]1CC#N (some centres unmarked) [Compound I-84]
GI50 [1]: < 500 nM
GI50 (HeLa cells (ATCC CCL-2)): 1.5 to 10 µM
DC50 (GSPT1; [2]): < 250 nM
DC50 (GSPT1; [3]): < 250 nM
IC50 (KRAS G12C): > 10000 nM

C=C(COc1cc(NC(=O)NCc2ccc3c(c2F)CN(C2CCC(=O)NC2=O)C3=O)cc(C(F)(F)F)c1)C(=O)N1CCN(c2nc(OC[C@@H]3CCCN3C)nc3c2CCN(c2cccc4cccc(Cl)c24)C3)C[C@@H]1CC#N (some centres unmarked) [Compound I-85]
GI50 [1]: 1500 to 10000 nM
GI50 (HeLa cells (ATCC CCL-2)): > 10 µM
DC50 (GSPT1; [2]): 250 to 5000 nM
DC50 (GSPT1; [3]): < 250 nM
IC50 (KRAS G12C): < 100 nM

C=C(COc1c(Cl)cccc1NC(=O)NCc1ccc2c(c1)CN(C1CCC(=O)NC1=O)C2=O)C(=O)N1CCN(c2nc(OC[C@@H]3CCCN3C)nc3c2CCN(c2cccc4cccc(Cl)c24)C3)C[C@@H]1CC#N (some centres unmarked) [Compound I-86]
GI50 [1]: < 500 nM
GI50 (HeLa cells (ATCC CCL-2)): 0.5 to 1.5 µM
DC50 (GSPT1; [2]): < 250 nM
DC50 (GSPT1; [3]): < 250 nM
IC50 (KRAS G12C): < 100 nM

C=C(COc1cc(C(F)(F)F)c(Cl)cc1NC(=O)NCc1ccc2c(c1)CN(C1CCC(=O)NC1=O)C2=O)C(=O)N1CCN(c2nc(OC[C@@H]3CCCN3C)nc3c2CCN(c2cccc4cccc(Cl)c24)C3)C[C@@H]1CC#N (some centres unmarked) [Compound I-88]
GI50 [1]: < 500 nM
GI50 (HeLa cells (ATCC CCL-2)): 0.5 to 1.5 µM
DC50 (GSPT1; [2]): < 250 nM
DC50 (GSPT1; [3]): < 250 nM
IC50 (KRAS G12C): < 100 nM

C=C(COc1cc(NC(=O)NCc2ccc3c(c2)CN(C2CCC(=O)NC2=O)C3=O)ccc1OC)C(=O)N1CCN(c2nc(OC[C@@H]3CCCN3C)nc3c2CCN(c2cccc4cccc(Cl)c24)C3)C[C@@H]1CC#N (some centres unmarked) [Compound I-89]
GI50 [1]: > 10000 nM
GI50 (HeLa cells (ATCC CCL-2)): > 10 µM
DC50 (GSPT1; [2]): 250 to 5000 nM
DC50 (GSPT1; [3]): > 10000 nM
IC50 (KRAS G12C): < 100 nM

C=C(COc1c(CNC(=O)Nc2ccc(C)c(Cl)c2)ccc2c1CN(C1CCC(=O)NC1=O)C2=O)C(=O)N1CCN(c2nc(OC[C@@H]3CCCN3C)nc3c2CCN(c2cccc4cccc(Cl)c24)C3)C[C@@H]1CC#N (some centres unmarked) [Compound I-90]
GI50 [1]: < 500 nM
GI50 (HeLa cells (ATCC CCL-2)): > 10 µM
DC50 (GSPT1; [2]): < 250 nM
DC50 (GSPT1; [3]): < 250 nM
IC50 (KRAS G12C): < 100 nM

C=C(COc1cc(Cl)cc(NC(=O)NCc2ccc3c(c2F)CN(C2CCC(=O)NC2=O)C3=O)c1)C(=O)N1CCN(c2nc(OC[C@@H]3CCCN3C)nc3c2CCN(c2cccc4cccc(Cl)c24)C3)C[C@@H]1CC#N (some centres unmarked) [Compound I-116]
GI50 [1]: 1500 to 10000 nM
GI50 (HeLa cells (ATCC CCL-2)): > 10 µM
DC50 (GSPT1; [2]): 250 to 5000 nM
DC50 (GSPT1; [3]): < 250 nM
IC50 (KRAS G12C): < 100 nM
